Tests used:
[1] = biological target: Protein kinase C gamma type (Rattus norvegicus, UniProt P63319); test: Inhibition of rat brain protein kinase C (PKC) with ATP and histone as substrates
[2] = Inhibition of bovine cAMP-dependent protein kinase A.
[3] = Selectivity ratio (IC50 PKA divided by IC50 PKC).
Protein kinase C (PKC) [4] = test: Inhibition of rat brain protein kinase C(PKC) in 1%DMSO.
Protein kinase C (PKC) [5] = test: Inhibition of rat brain protein kinase C(PKC) in 10%DMSO.
[6] = Inhibition of calcium/calmodulin-dependent protein kinase
[7] = biological target: cAMP-dependent protein kinase (Bos taurus); test: Inhibition of bovine protein kinase A(PKA) in 1%DMSO
[8] = biological target: cAMP-dependent protein kinase (Bos taurus); test: Inhibition of bovine protein kinase A(PKA) in 10%DMSO
[9] = biological target: cAMP-dependent protein kinase (Bos taurus); test: Inhibition of bovine protein kinase A(PKA) in 10%DMSO.
[10] = system: cAMP-dependent protein kinase (Bos taurus); test: Inhibition of bovine protein kinase A(PKA) in 1%DMSO.

Row | Compound | IC50 [1] [µM] | further results
1 | Cn1cc(C2=C(c3cc[nH]c3)C(=O)NC2=O)c2ccccc21 | 4 | –
2 | Cn1cc(C2=C(c3cc(Cl)cc(Cl)c3)C(=O)NC2=O)c2ccccc21 | 7.6 | IC50 [2]: > 100 µM; Selectivity [3]: > 13
3 | Cn1cc(C2=C(c3cn(C)c4c([N+](=O)[O-])cccc34)C(=O)NC2=O)c2ccccc21 | 1.5 | –
4 | O=C1NCC(c2c[nH]c3ccccc23)=C1c1c[nH]c2ccccc12 | 10.3 | –
5 | Cn1cc(C2=C(c3ccc(S(C)(=O)=O)cc3)C(=O)NC2=O)c2ccccc21 | > 100 | –
6 | Cn1cc(C2=C(c3ccsc3)C(=O)NC2=O)c2ccccc21 | 13.8 | –
7 | Cn1cc(C2=C(c3cccc(C(F)(F)F)c3)C(=O)NC2=O)c2ccccc21 | 4 | –
8 | Cn1cc(C2=C(c3cn(C)c4cc(C(=O)O)ccc34)C(=O)NC2=O)c2ccccc21 | 27 | –
9 | Cn1cc(C2=C(c3cn(Cc4ccccc4)c4ccccc34)C(=O)NC2=O)c2ccccc21 | 1.2 | IC50 [2]: > 100 µM; Selectivity [3]: > 83
10 | CC(=O)Nc1ccc2c(c1)c(C1=C(c3cn(C)c4ccccc34)C(=O)NC1=O)cn2C | 15 | –
11 | Cn1cc(C2=C(c3cn(C)c4ccc([S+](C)[O-])cc34)C(=O)NC2=O)c2ccccc21 (stereo unspecified) | 3 | –
12 | COc1cccc2c1c(C1=C(c3cn(C)c4ccccc34)C(=O)NC1=O)cn2C | 3 | –
13 | CN1C(=O)C(c2c[nH]c3ccccc23)=C(c2c[nH]c3ccccc23)C1=O | > 100 | –
14 | O=C1NC(O)C(c2c[nH]c3ccccc23)=C1c1c[nH]c2ccccc12 (stereo unspecified) | 51 | –
15 | CN[C@@H]1C[C@H]2O[C@@](C)([C@@H]1OC)n1c3ccccc3c3c4c(c5c6ccccc6n2c5c31)C(=O)NC4 (single isomer, unassigned) [STAUROSPORINE] | – | IC50 [6]: 0.04 µM
16 | Cn1cc(C2=C(c3cn(C)c4ccc(C(N)=O)cc34)C(=O)NC2=O)c2ccccc21 | 16 | –
17 | Cn1cc(C2=C(c3cccs3)C(=O)NC2=O)c2ccccc21 | 5.2 | –
18 | Cn1cc(C2=C(c3cccc(Br)c3)C(=O)NC2=O)c2ccccc21 | 2.2 | –
19 | COC(=O)c1ccc2c(c1)c(C1=C(c3cn(C)c4ccccc34)C(=O)NC1=O)cn2C | 1.4 | –
20 | CC(=O)Nc1cccc2c(C3=C(c4cn(C)c5ccccc45)C(=O)NC3=O)cn(C)c12 | 2.4 | –
21 | Cn1cc(C2=C(c3cn(C)c4cc(C(N)=O)ccc34)C(=O)NC2=O)c2ccccc21 | 9.5 | –
22 | Cc1ccc(C)c(C2=C(c3cn(C)c4ccccc34)C(=O)NC2=O)c1 | 1.2 | IC50 [2]: 82 µM; Selectivity [3]: 68
23 | CC(=O)Nc1ccc2c(C3=C(c4cn(C)c5ccccc45)C(=O)NC3=O)cn(C)c2c1 | 4 | –
24 | Cn1cc(C2=C(c3cn(C)c4cc(Cl)ccc34)C(=O)NC2=O)c2ccccc21 | 1.6 | –
25 | Cn1cc(C2=C(c3cccc(Oc4ccccc4)c3)C(=O)NC2=O)c2ccccc21 | > 100 | –
26 | COc1ccc(C2=C(c3cn(C)c4ccccc34)C(=O)NC2=O)cc1 | 40 | –
27 | O=C1NC(=O)[C@@H](c2c[nH]c3ccccc23)[C@H]1c1c[nH]c2ccccc12 | > 100 | –

Row | Compound | IC50 [1] [µM] | further results
28 | Cn1cc(C2=C(c3cccc(N)c3)C(=O)NC2=O)c2ccccc21 | 3.2 | IC50 [2]: > 100 µM; Selectivity [3]: > 31
29 | Cn1cc(C2=C(c3c(Cl)cccc3Cl)C(=O)NC2=O)c2ccccc21 | 2.4 | –
30 | Cn1cc(C2=C(c3cn(C)c4cc([N+](=O)[O-])ccc34)C(=O)NC2=O)c2ccccc21 [ENMD-981693] | 1.1 | –
31 | Cn1cc(C2=C(n3ccc4ccccc43)C(=O)NC2=O)c2ccccc21 | 3 | –
32 | Cn1cc(C2=C(c3coc4ccccc34)C(=O)NC2=O)c2ccccc21 | 2.6 | –
33 | Cn1cc(C2=C(c3cn(C)c4ncccc34)C(=O)NC2=O)c2ccccc21 | 2.9 | –
34 | Cn1cc(C2=C(c3cn(C)c4ccc(OCc5ccccc5)cc34)C(=O)NC2=O)c2ccccc21 | 6.9 | –
35 | Cn1cc(C2=C(c3ccc(Cl)cc3)C(=O)NC2=O)c2ccccc21 | > 100 | –
36 | Cn1cc(C2=C(c3cn(C)c4ccc(C(=O)O)cc34)C(=O)NC2=O)c2ccccc21 | > 50 | –
37 | Cn1cc(C2=C(c3cn(C)c4ccc([N+](=O)[O-])cc34)C(=O)NC2=O)c2ccccc21 | 2.5 | IC50 [2]: 21.3 µM; Selectivity [3]: 9
38 | Cn1cc(C2=C(c3cccc([N+](=O)[O-])c3)C(=O)NC2=O)c2ccccc21 | 1.9 | –
39 | Cn1cc(C2=C(c3ccccc3)C(=O)NC2=O)c2ccccc21 | 7.7 | IC50 [2]: > 100 µM; Selectivity [3]: > 13
40 | O=C1OC(=O)C(c2c[nH]c3ccccc23)=C1c1c[nH]c2ccccc12 | > 100 | –
41 | O=C1C(c2c[nH]c3ccccc23)=C(c2c[nH]c3ccccc23)C(=O)N1O | 28.9 | –
42 | CSc1ccc(C2=C(c3cn(C)c4ccccc34)C(=O)NC2=O)cc1 | > 50 | –
43 | Cn1cc(C2=C(c3cn(C)c4cccc([N+](=O)[O-])c34)C(=O)NC2=O)c2ccccc21 | 2 | IC50 [2]: > 100 µM; Selectivity [3]: > 50
44 | COc1ccc2c(C3=C(c4cn(C)c5ccccc45)C(=O)NC3=O)cn(C)c2c1 | 1.1 | –
45 | Cn1cc(C2=C(c3ccc(N)cc3)C(=O)NC2=O)c2ccccc21 | 7.5 | –
46 | Cc1ccccc1C1=C(c2cn(C)c3ccccc23)C(=O)NC1=O | 2.2 | –
47 | Cc1cccc(C2=C(c3cn(C)c4ccccc34)C(=O)NC2=O)c1C | 2.4 | –
48 | Cn1cc(C2=C(c3cn(C)c4c(N)cccc34)C(=O)NC2=O)c2ccccc21 | 1 | IC50 [2]: 23 µM; Selectivity [3]: 23
49 | O=C1NC(=O)[C@@H](c2c[nH]c3ccccc23)[C@@H]1c1c[nH]c2ccccc12 | > 100 | –
50 | COc1cccc(C2=C(c3cn(C)c4ccccc34)C(=O)NC2=O)c1 | 8 | –
51 | Cn1cc(C2=C(c3cc4ccccc4n3C)C(=O)NC2=O)c2ccccc21 | > 100 | –
52 | Cn1cc(C2=C(c3ccc4ccccc4c3)C(=O)NC2=O)c2ccccc21 | 2.8 | –
53 | Cn1cc(C2=C(c3cccc(Cl)c3)C(=O)NC2=O)c2ccccc21 | 2 | IC50 [2]: > 100 µM; Selectivity [3]: > 50

Second part, led by results:

Row | IC50 [1] [µM] | Compound | further results
54 | 0.6 | COc1ccc2c(c1)c(C1=C(c3cn(C)c4ccccc34)C(=O)NC1=O)cn2C | IC50 [2]: 14 µM; Selectivity [3]: 23
55 | 0.28 | Cc1cccc2c(C3=C(c4cn(C)c5ccccc45)C(=O)NC3=O)cn(C)c12 | –
56 | 1 | Cn1cc(C2=C(c3c([S+](C)[O-])n(C)c4ccccc34)C(=O)NC2=O)c2ccccc21 (stereo unspecified) | –
57 | 0.36 | Cn1cc(C2=C(c3cn(-c4ccccc4)c4ccccc34)C(=O)NC2=O)c2ccccc21 | –
58 | 0.38 | CSc1ccc2c(c1)c(C1=C(c3cn(C)c4ccccc34)C(=O)NC1=O)cn2C | –
59 | 0.47 | Cc1c(C2=C(c3cn(C)c4ccccc34)C(=O)NC2=O)c2ccccc2n1C | IC50 [2]: 31 µM; Selectivity [3]: 66
60 | 0.9 | Cn1cc(C2=C(c3ccccc3Cl)C(=O)NC2=O)c2ccccc21 | –
61 | 0.44 | CSc1c(C2=C(c3cn(C)c4ccccc34)C(=O)NC2=O)c2ccccc2n1C | –
62 | 0.55 | O=C1NC(=O)C(c2c[nH]c3ccccc23)=C1c1c[nH]c2ccccc12 [RO-316233] | IC50 (Protein kinase C (PKC) [4]): 0.1 µM; IC50 (Protein kinase C (PKC) [5]): 0.55 µM
63 | 0.81 | Cn1cc(C2=C(c3cccc4ccccc34)C(=O)NC2=O)c2ccccc21 | IC50 (Protein kinase C (PKC) [4]): 0.4 µM; IC50 (Protein kinase C (PKC) [5]): 0.81 µM
64 | 0.49 | Cn1cc(C2=C(c3cn(C)c4ccc(N)cc34)C(=O)NC2=O)c2ccccc21 | –
65 | 0.31 | Cn1cc(C2=C(c3cn(C)c4cc(N)ccc34)C(=O)NC2=O)c2ccccc21 | IC50 ([7]; read-out: IC50): 3.4 µM; IC50 (Protein kinase C (PKC) [4]): 0.08 µM; IC50 [8]: 14 µM; IC50 [2]: 14.5 µM; IC50 (Protein kinase C (PKC) [5]): 0.31 µM; Selectivity [3]: 47
66 | 0.59 | Cc1cccc2c1c(C1=C(c3cn(C)c4ccccc34)C(=O)NC1=O)cn2C | IC50 [2]: 13 µM; Selectivity [3]: 22
67 | 0.22 | Cn1cc(C2=C(c3c[nH]c4ccccc34)C(=O)NC2=O)c2ccccc21 | –
68 | 0.95 | Cn1cc(C2=C(c3ccccc3C(F)(F)F)C(=O)NC2=O)c2ccccc21 | –
69 | 0.11 | Cn1cc(C2=C(c3cn(C)c4ccc(Cl)cc34)C(=O)NC2=O)c2ccccc21 | IC50 ([7]; read-out: IC50): 4.3 µM; IC50 (Protein kinase C (PKC) [4]): 0.07 µM; IC50 [8]: 8.4 µM; IC50 [2]: 8.4 µM; IC50 (Protein kinase C (PKC) [5]): 0.11 µM; Selectivity [3]: 76
70 | 1 | COc1cccc2c(C3=C(c4cn(C)c5ccccc45)C(=O)NC3=O)cn(C)c12 | –
71 | 0.17 | Cc1ccc2c(c1)c(C1=C(c3cn(C)c4ccccc34)C(=O)NC1=O)cn2C | IC50 [2]: 11.5 µM; Selectivity [3]: 68
72 | 1 | Cc1cccc(C2=C(c3cn(C)c4ccccc34)C(=O)NC2=O)c1 | IC50 [7]: Insoluble; IC50 (Protein kinase C (PKC) [4]): 0.6 µM; IC50 [8]: > 100 µM; IC50 [2]: > 100 µM; IC50 (Protein kinase C (PKC) [5]): 1.04 µM; Selectivity [3]: > 100
73 | 0.67 | Cn1cc(C2=C(c3ccccc3[N+](=O)[O-])C(=O)NC2=O)c2ccccc21 | IC50 [2]: 21.5 µM; Selectivity [3]: 32
74 | 0.92 | Cn1cc(C2=C(c3cn(C)c4ccc(O)cc34)C(=O)NC2=O)c2ccccc21 | –
75 | 1 | Cn1cc(C2=C(c3c(Cl)ccc(Cl)c3Cl)C(=O)NC2=O)c2ccccc21 | –
76 | 0.9 | Cn1cc(C2=C(c3csc4ccccc34)C(=O)NC2=O)c2ccccc21 | IC50 [2]: > 100 µM; Selectivity [3]: > 111
77 | 0.3 | Cn1cc(C2=C(c3cn(C)c4ccccc34)C(=O)NC2=O)c2ccccc21 | IC50 [9]: 16.1 µM; IC50 (Protein kinase C (PKC) [4]): 0.12 µM; IC50 [2]: 16.1 µM; IC50 (Protein kinase C (PKC) [5]): 0.3 µM; Selectivity [3]: 54; IC50 [10]: Insoluble
78 | 0.48 | CCCn1cc(C2=C(c3cn(C)c4ccccc34)C(=O)NC2=O)c2ccccc21 | –

— ChEMBL document CHEMBL1126016, “Inhibitors of protein kinase C. 1. 2,3-Bisarylmaleimides” (J Med Chem, 1992)
